Assay results published in patent publication US10405547B2, “Substituted cyclic amides as herbicides” (FMC Corporation, priority 2015, dated 2019).

Assays:
Assay type in all cases: in vivo
[1] = tested on: barnyardgrass (Echinochloa crus-galli); assay: Test A preemergence, barnyardgrass; conditions: 0 to 100 scale (0 no effect, 100 complete control)
How it was run: (§1)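 Ratings use a 0–100 scale, where 0 means no effect and 100 means complete control, and come from visual comparison with untreated plants roughly 10 days after treatment. Compounds were applied in a surfactant-containing, non-phytotoxic solvent, either to soil after seeding or to foliage of small seedlings.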

kochia (Kochia scoparia) [2] = assay: Test A preemergence, kochia; conditions: 0 to 100 scale (0 no effect, 100 complete control)
How it was run: as §1

[3] = tested on: ragweed (common ragweed, Ambrosia elatior); assay: Test A preemergence, ragweed; conditions: 0 to 100 scale (0 no effect, 100 complete control)
How it was run: as §1

[4] = tested on: ryegrass, Italian (Lolium multiflorum); assay: Test A preemergence, Italian ryegrass; conditions: 0 to 100 scale (0 no effect, 100 complete control)
How it was run: as §1

[5] = tested on: foxtail, giant (Setaria faberii); assay: Test A preemergence, giant foxtail; conditions: 0 to 100 scale (0 no effect, 100 complete control)
How it was run: as §1

[6] = tested on: pigweed (Amaranthus retroflexus); assay: Test A preemergence, pigweed; conditions: 0 to 100 scale (0 no effect, 100 complete control)
How it was run: as §1

[7] = tested on: barnyardgrass (Echinochloa crus-galli); assay: Test A postemergence, barnyardgrass; conditions: visual injury, 0 to 100 scale (0 no effect, 100 complete control), approximately 10 days
How it was run: as §1

[8] = tested on: ragweed (common ragweed, Ambrosia elatior); assay: Test A postemergence, ragweed; conditions: visual injury, 0 to 100 scale (0 no effect, 100 complete control), approximately 10 days
How it was run: as §1

[9] = tested on: ryegrass, Italian (Lolium multiflorum); assay: Test A postemergence, Italian ryegrass; conditions: visual injury, 0 to 100 scale (0 no effect, 100 complete control), approximately 10 days
How it was run: as §1

[10] = tested on: foxtail, giant (Setaria faberii); assay: Test A postemergence, giant foxtail; conditions: visual injury, 0 to 100 scale (0 no effect, 100 complete control), approximately 10 days
How it was run: as §1

[11] = tested on: pigweed (Amaranthus retroflexus); assay: Test A postemergence, pigweed; conditions: visual injury, 0 to 100 scale (0 no effect, 100 complete control), approximately 10 days
How it was run: as §1

[12] = tested on: blackgrass (Alopecurus myosuroides); assay: Test A postemergence, blackgrass; conditions: visual injury, 0 to 100 scale (0 no effect, 100 complete control), approximately 10 days
How it was run: as §1

[13] = tested on: galium (catchweed bedstraw, Galium aparine); assay: Test A postemergence, galium; conditions: visual injury, 0 to 100 scale (0 no effect, 100 complete control), approximately 10 days
How it was run: as §1

[14] = tested on: wheat (Triticum aestivum); assay: Test A postemergence, wheat; conditions: visual injury, 0 to 100 scale (0 no effect, 100 complete control), approximately 10 days
How it was run: as §1

corn (Zea mays) = assay: Test A postemergence, corn; conditions: visual injury, 0 to 100 scale (0 no effect, 100 complete control), approximately 10 days
How it was run: as §1

rice (Oryza sativa) = assay: Test B flooded paddy test, rice; conditions: 250 g ai/ha, applied to paddy water, visual rating after 13 to 15 days, scale 0 (no effect) to 100 (complete control)
Excerpt: (§2) At time of treatment, test pots were flooded to 3 cm above the soil surface, treated by application of test compounds directly to the paddy water, and then maintained at that water depth for the duration of the test. Treated plants and controls were maintained in a greenhouse for 13 to 15 days, after which time all species were compared to controls and visually evaluated. […] A dash (-) response means no test result.

[15] = tested on: sedge, umbrella (small-flower umbrella sedge, Cyperus difformis); assay: Test B flooded paddy test, umbrella sedge; conditions: 250 g ai/ha, applied to paddy water, visual rating after 13 to 15 days, scale 0 (no effect) to 100 (complete control)
Excerpt: as §2

[16] = tested on: ducksalad (Heteranthera limosa); assay: Test B flooded paddy test, ducksalad; conditions: 250 g ai/ha, applied to paddy water, visual rating after 13 to 15 days, scale 0 (no effect) to 100 (complete control)
Excerpt: as §2

[17] = tested on: barnyardgrass (Echinochloa crus-galli); assay: Test B flooded paddy test, barnyardgrass; conditions: 250 g ai/ha, applied to paddy water, visual rating after 13 to 15 days, scale 0 (no effect) to 100 (complete control)
Excerpt: as §2

kochia (Kochia scoparia) [18] = assay: Test A postemergence, kochia; conditions: visual injury, 0 to 100 scale (0 no effect, 100 complete control), approximately 10 days
How it was run: as §1

Row | Compound | Plant response rating, Barnyardgrass ([1]; 125 g ai/ha) | Plant response rating, Barnyardgrass ([1]; 500 g ai/ha) | Plant response rating, Kochia (kochia (Kochia scoparia) [2]; 125 g ai/ha) | Plant response rating, Kochia (kochia (Kochia scoparia) [2]; 500 g ai/ha) | Plant response rating, Ragweed ([3]; 125 g ai/ha) | Plant response rating, Ragweed ([3]; 500 g ai/ha) | Plant response rating, Ryegrass, Italian ([4]; 125 g ai/ha) | Plant response rating, Ryegrass, Italian ([4]; 500 g ai/ha) | Plant response rating, Foxtail, Giant ([5]; 125 g ai/ha) | Plant response rating, Foxtail, Giant ([5]; 500 g ai/ha) | Plant response rating, Pigweed ([6]; 125 g ai/ha) | Plant response rating, Pigweed ([6]; 500 g ai/ha) | Plant response rating, Barnyardgrass ([7]; 125 g ai/ha) | Plant response rating, Barnyardgrass ([7]; 500 g ai/ha) | Plant response rating, Ragweed ([8]; 125 g ai/ha) | Plant response rating, Ragweed ([8]; 500 g ai/ha) | Plant response rating, Ryegrass, Italian ([9]; 125 g ai/ha) | Plant response rating, Ryegrass, Italian ([9]; 500 g ai/ha) | Plant response rating, Foxtail, Giant ([10]; 125 g ai/ha) | Plant response rating, Foxtail, Giant ([10]; 500 g ai/ha) | further results
1 | CN1CC(c2cccc(Sc3ccccc3)c2)C(C(=O)Nc2ccccc2F)C1=O (single isomer, unassigned) [Compound 50] | 0 | 40 | 0 | 30 | 0 | 30 | 0 | 0 | 90 | 90 | 20 | 20 | 0 | 30 | 0 | 0 | 0 | 0 | 50 | 70 | Plant response rating, Pigweed ([11]; 125 g ai/ha): 0; Plant response rating, Pigweed ([11]; 500 g ai/ha): 30; Plant response rating, Blackgrass ([12]; 125 g ai/ha): 0; Plant response rating, Blackgrass ([12]; 500 g ai/ha): 0; Plant response rating, Galium ([13]; 125 g ai/ha): 0; Plant response rating, Galium ([13]; 500 g ai/ha): 40; Plant response rating, Wheat ([14]; 125 g ai/ha): 0; Plant response rating, Wheat ([14]; 500 g ai/ha): 0; Plant response rating, Corn (corn (Zea mays); 125 g ai/ha): 0; Plant response rating, Corn (corn (Zea mays); 500 g ai/ha): 20; Plant response rating, Rice (Flood) (rice (Oryza sativa)): 0; Plant response rating, Sedge, Umbrella (Flood) [15]: 0; Plant response rating, Ducksalad (Flood) [16]: 70; Plant response rating, Barnyardgrass (Flood) [17]: 0
2 | O=C1NCC(c2cccc(Oc3ccc(F)cn3)c2)C1C(=O)Nc1cccc(F)c1F (single isomer, unassigned) [Compound 52] | 70 | 90 | 70 | 80 | 40 | 80 | 30 | 40 | 90 | 90 | 60 | 70 | 70 | 80 | 0 | 60 | 30 | 60 | 70 | 90 | Plant response rating, Pigweed ([11]; 125 g ai/ha): 40; Plant response rating, Pigweed ([11]; 500 g ai/ha): 60; Plant response rating, Blackgrass ([12]; 125 g ai/ha): 30; Plant response rating, Blackgrass ([12]; 500 g ai/ha): 40; Plant response rating, Galium ([13]; 125 g ai/ha): 40; Plant response rating, Galium ([13]; 500 g ai/ha): 60; Plant response rating, Wheat ([14]; 125 g ai/ha): 0; Plant response rating, Wheat ([14]; 500 g ai/ha): 40; Plant response rating, Corn (corn (Zea mays); 125 g ai/ha): 50; Plant response rating, Corn (corn (Zea mays); 500 g ai/ha): 70; Plant response rating, Rice (Flood) (rice (Oryza sativa)): 0; Plant response rating, Sedge, Umbrella (Flood) [15]: 0; Plant response rating, Ducksalad (Flood) [16]: 100; Plant response rating, Barnyardgrass (Flood) [17]: 40
3 | CN1CC(c2cccc(Oc3ccc(F)cn3)c2)C(C(=O)Nc2ccccc2F)C1=O (single isomer, unassigned) [Compound 60] | 90 | 90 | 70 | 80 | 40 | 50 | 20 | 70 | 90 | 90 | 60 | 50 | 70 | 90 | 0 | 40 | 30 | 50 | 80 | 90 | Plant response rating, Pigweed ([11]; 125 g ai/ha): 0; Plant response rating, Pigweed ([11]; 500 g ai/ha): 40; Plant response rating, Blackgrass ([12]; 125 g ai/ha): 0; Plant response rating, Blackgrass ([12]; 500 g ai/ha): 30; Plant response rating, Galium ([13]; 125 g ai/ha): 30; Plant response rating, Galium ([13]; 500 g ai/ha): 60; Plant response rating, Wheat ([14]; 125 g ai/ha): 0; Plant response rating, Wheat ([14]; 500 g ai/ha): 70; Plant response rating, Corn (corn (Zea mays); 125 g ai/ha): 30; Plant response rating, Corn (corn (Zea mays); 500 g ai/ha): 50; Plant response rating, Rice (Flood) (rice (Oryza sativa)): 0; Plant response rating, Sedge, Umbrella (Flood) [15]: 0; Plant response rating, Ducksalad (Flood) [16]: 100; Plant response rating, Barnyardgrass (Flood) [17]: 65
4 | O=C1NCC(c2cccc(Oc3ncc(Cl)cn3)c2)C1C(=O)Nc1ccccc1F (stereo not shown) [Compound 55] | 0 | 80 | 0 | 20 | 0 | 0 | 0 | 20 | 80 | 90 | 0 | 0 | 30 | 80 | 0 | 0 | 0 | 30 | 70 | 80 | Plant response rating, Kochia (kochia (Kochia scoparia) [18]; 125 g ai/ha): 0; Plant response rating, Kochia (kochia (Kochia scoparia) [18]; 500 g ai/ha): 0; Plant response rating, Pigweed ([11]; 125 g ai/ha): 0; Plant response rating, Pigweed ([11]; 500 g ai/ha): 0; Plant response rating, Blackgrass ([12]; 125 g ai/ha): 0; Plant response rating, Blackgrass ([12]; 500 g ai/ha): 0; Plant response rating, Galium ([13]; 125 g ai/ha): 0; Plant response rating, Galium ([13]; 500 g ai/ha): 30; Plant response rating, Wheat ([14]; 125 g ai/ha): 0; Plant response rating, Wheat ([14]; 500 g ai/ha): 0; Plant response rating, Corn (corn (Zea mays); 125 g ai/ha): 0; Plant response rating, Corn (corn (Zea mays); 500 g ai/ha): 0
5 | O=C1NCC(c2cccc(Oc3ncc(Cl)cn3)c2)C1C(=O)Nc1cccc(F)c1F (stereo not shown) [Compound 56] | 30 | 70 | 0 | 0 | 0 | 0 | 0 | 0 | 0 | 0 | 0 | 0 | 0 | 30 | 0 | 0 | 0 | 0 | 0 | 60 | Plant response rating, Kochia (kochia (Kochia scoparia) [18]; 125 g ai/ha): 0; Plant response rating, Kochia (kochia (Kochia scoparia) [18]; 500 g ai/ha): 0; Plant response rating, Pigweed ([11]; 125 g ai/ha): 0; Plant response rating, Pigweed ([11]; 500 g ai/ha): 0; Plant response rating, Blackgrass ([12]; 125 g ai/ha): 0; Plant response rating, Blackgrass ([12]; 500 g ai/ha): 0; Plant response rating, Galium ([13]; 125 g ai/ha): 0; Plant response rating, Galium ([13]; 500 g ai/ha): 20; Plant response rating, Wheat ([14]; 125 g ai/ha): 0; Plant response rating, Wheat ([14]; 500 g ai/ha): 0; Plant response rating, Corn (corn (Zea mays); 125 g ai/ha): 0; Plant response rating, Corn (corn (Zea mays); 500 g ai/ha): 0
